Assay results reported in patent US20200297621A1, “Topical Compositions for Neuropathic Pain” (GOOD PHARMACEUTICAL DEVELOPMENT COMPANY, LLC, priority 2016, published 2020).
Where “and” joins values, the source holds several entries; their conditions need not be identical. Equal entries are not always repeated.

Test: Stability testing of the topical gabapentin/ketamine composition
Type: physicochemical
Design: Assay: unit not given beside the values
Details: for Assay (avg): avg of the two determinations; for Assay: single determinations

| SMILES | Assay (avg) (2 wk, 25/60) | Assay (2 wk, 25/60) | Assay (avg) (2 wk, 40/75) | Assay (2 wk, 40/75) | Assay (avg) (t = 0) | Assay (t = 0) | Assay (2 wk, 25/60, acetic acid) | Assay (2 wk, 40/75, acetic acid) | Assay (t = 0, acetic acid) |
| --- | --- | --- | --- | --- | --- | --- | --- | --- | --- |
| COC(=O)c1ccc(O)cc1 [Methylparaben] | 106.1 | 108.2 and 104.1 | 108.1 | 109.6 and 106.7 | 112.0 | 111.1 and 112.9 |  |  |  |
| NCC1(CC(=O)O)CCCCC1 [Gabapentin, 1-(aminomethyl)cyclohexane acetic acid] | 106.6 |  | 105.8 |  | 111.3 |  | 105.4 and 107.8 | 106.1 and 105.5 | 111.9 and 110.7 |
| CNC1(c2ccccc2Cl)CCCCC1=O.Cl (racemic) [Ketamine HCl, (±) 2-(o-chlorophenyl)-2-(methylamino)-cyclohexanone] | 105.8 | 105.9 and 105.7 | 105.2 | 105.2 | 106.3 | 108.8 and 103.9 |  |  |  |
